# Assay results published in publication PMC7129073 (Clinical Microbiology and Infection, 2015).
# Read-outs that look alike come from different tables or passages of the source.
# What was measured:
# Nocardia spp. [1] = experiment: E-test on Mueller Hinton agar, 81 clinical isolates; assay type: cell-based
# E. coli [2] = experiment: Disk diffusion, urine isolates of BPH patients; conditions: strains isolated after operative intervention
# H. influenzae [3] = experiment: Disk diffusion, sputum isolates Athens 2001–2004; assay type: cell-based, Haemophilus influenzae
# S. pneumoniae [4] = experiment: MIC of invasive strains, Saint George Hospital 2001–2004; assay type: cell-based, Streptococcus pneumoniae
# K. pneumoniae = experiment: MIC; assay type: cell-based, Klebsiella pneumoniae; conditions: Klebsiella pneumoniae
# E. coli [5] = experiment: SMART 2003 Europe, microdilution; assay type: cell-based, Escherichia coli; conditions: 1106 isolates
# Acinetobacter = experiment: Disk diffusion; assay type: cell-based; conditions: 37 isolates selected as resistant to beta-lactams
# Enterobacteriaceae = experiment: SMART 2003 Europe, microdilution; assay type: cell-based; conditions: 1948 isolates
# Klebsiella = experiment: SMART 2003 Europe, microdilution; assay type: cell-based, Klebsiella spp.; conditions: 341 isolates
# [6] = tested on: inducible Enterobacteriaceae; experiment: SMART 2003, intraabdominal isolates; assay type: cell-based
# [7] = tested on: Salmonella serotype Enteritidis; experiment: Disk diffusion, food isolates Spain; assay type: cell-based; conditions: n = 96
# Nocardia spp. [8] = experiment: Time-kill at peak-serum concentrations, seven strains; assay type: cell-based; conditions: of seven strains; 24, 72 h
# Escherichia coli = experiment: Vitek 2 susceptibility, urine isolates of children; assay type: cell-based
# Pseudomonas aeruginosa = experiment: MIC, strains from cystic fibrosis patients; conditions: by MIC
# [9] = tested on: Salmonella serotype Typhimurium; experiment: Disk diffusion, food isolates Spain; assay type: cell-based; conditions: n = 53
# [10] = tested on: Salmonella, other 49 serotypes; experiment: Disk diffusion, food isolates Spain; assay type: cell-based; conditions: n = 115
# [11] = tested on: Streptococcus agalactiae strains P0162 and P0425; experiment: Microdilution; assay type: cell-based
# [12] = tested on: methicillin susceptible Staphylococcus aureus; experiment: NCCLS agar dilution MIC; assay type: cell-based
# [13] = tested on: viridans group streptococci (VGS); experiment: MIC; assay type: cell-based
# MSSA = experiment: Agar dilution MIC; assay type: cell-based, Staphylococcus aureus
# S. pneumoniae (SPN) = experiment: NCCLS broth microdilution, fluoroquinolones 1999–2004; assay type: cell-based, Streptococcus pneumoniae; conditions: Streptococcus pneumoniae, read-out: MIC90 during the six years, 1999–2004
# [14] = tested on: methicillin resistant Staphylococcus aureus; experiment: NCCLS agar dilution MIC; assay type: cell-based; conditions: Staphylococcus aureus
# MRSA = experiment: Agar dilution MIC; assay type: cell-based, Staphylococcus aureus
# Pseudomonas spp. = experiment: MIC; assay type: cell-based
# P. aeruginosa = experiment: Disk diffusion, urine isolates of BPH patients
# S. pneumoniae [15] = experiment: Broth microdilution; assay type: cell-based, Streptococcus pneumoniae; conditions: 275 isolates
# H. influenzae [16] = experiment: Broth microdilution; assay type: cell-based, Haemophilus influenzae; conditions: 267 isolates
# MDR-MRSA = experiment: MIC, MBC; assay type: cell-based, Staphylococcus aureus; conditions: time kill, two strains
# CA-MRSA = experiment: MIC, MBC; assay type: cell-based, Staphylococcus aureus; conditions: time kill, two strains
# [17] = Phase 3 trial, complicated intra-abdominal infections; assay type: in vivo, human
# E. coli (Ec) = experiment: E-test, recurrent UTI isolates of children; assay type: cell-based, Escherichia coli
# [18] = tested on: biofilms of S. aureus (SA204 and SA195) and S. epidermidis (ATCC35983 and ATCC35984); experiment: Antibiotic lock, in vitro biofilm on polyurethane film, viable counts; assay type: cell-based, Staphylococcus species; conditions: any of the time intervals examined
molecule,measurement,setting,value
amoxicillin/clavulanate,MIC50,Nocardia spp. [1],2 µg/mL
same,MIC90,Nocardia spp. [1],8 µg/mL
same,resistance,E. coli [2],93.1%
same,resistance rate,H. influenzae [3]; 2001–2002,0%
same,resistance rate,H. influenzae [3]; 2003–2004,4.6%
same,% S,S. pneumoniae [4],100%
same,%R,S. pneumoniae [4],0%
NCC[C@H](O)C(=O)N[C@@H]1C[C@H](N)[C@@H](O[C@H]2O[C@H](CN)[C@@H](O)[C@H](O)[C@H]2O)[C@H](O)[C@H]1O[C@H]1O[C@H](CO)[C@@H](O)[C@H](N)[C@H]1O [amikacin],MIC,K. pneumoniae,4 µg/mL
same,per cent susceptible,E. coli [5],99%
same,resistant isolates,Acinetobacter,62.1%
same,per cent susceptible,Enterobacteriaceae,99%
same,per cent susceptible,Klebsiella,98%
same,% susceptible,[6]; A/P (N = 200),91%
same,% susceptible,[6]; EU (N = 354),99%
same,% susceptible,[6]; NA (N = 163),99%
same,MIC50,Nocardia spp. [1]; Nocardia,0.38 µg/mL
same,MIC90,Nocardia spp. [1]; Nocardia,1 µg/mL
same,MIC range,Nocardia spp. [1]; read after 48 and 72 h,0.016 to 2 µg/mL
same,resistance rate (NCCLS M100-S13),[7],1%
same,strains with bactericidal activity (≥3 log10 cfu/ml decrease),Nocardia spp. [8],7 strains
same,susceptibility rate,Escherichia coli; paediatric surgical unit (PSU),62%
same,susceptibility rate,Escherichia coli; paediatric units (PU),99%
same,Susceptible isolates,Pseudomonas aeruginosa,100%
same,resistance rate (NCCLS M100-S13),[9],0%
same,resistance rate (NCCLS M100-S13),[10],0%
COc1c(N2C[C@@H]3CCCN[C@@H]3C2)c(F)cc2c(=O)c(C(=O)O)cn(C3CC3)c12 [moxifloxacin],MIC,"[11]; strain P0162 (ParC Ser79Phe, GyrA Glu85Ala)",0.5 µg/mL
same,MIC,"[11]; strain P0425 (ParC Ser79Phe, GyrA Glu85Lys)",2 µg/mL
same,MIC50,[12]; Staphylococcus aureus,0.06 µg/mL
same,MIC90,[12]; Staphylococcus aureus,0.12 µg/mL
same,MIC range,[12]; n = 41,0.03 to 8 µg/mL
same,MIC50,[13],0.12 µg/mL
same,MIC90,[13],0.25 µg/mL
same,strains with bactericidal activity (≥3 log10 cfu/ml decrease),Nocardia spp. [8],2 strains
same,MIC50,"MSSA; Staphylococcus aureus, MSSA",< 0.025 µg/mL
same,MIC90,"MSSA; Staphylococcus aureus, MSSA",< 0.0625 µg/mL
same,MIC range,MSSA; n = 200,25 to 2000 µg/mL
same,MIC90,S. pneumoniae (SPN),0.12 to 0.25 µg/mL
same,MIC50,[14],2 µg/mL
same,MIC90,[14],8 µg/mL
same,MIC50,"MRSA; Staphylococcus aureus, MRSA",< 4 µg/mL
same,MIC90,"MRSA; Staphylococcus aureus, MRSA",< 4 µg/mL
same,MIC range,MRSA; n = 50,4 µg/mL
CCN1CCN(C(=O)N[C@@H](C(=O)N[C@@H]2C(=O)N3[C@@H]2SC(C)(C)[C@@H]3C(=O)O)c2ccccc2)C(=O)C1=O [piperacillin],resistant isolates,Acinetobacter,100.0%
same,susceptible strains,Pseudomonas spp.,84%
same,resistance,P. aeruginosa,73.3%
N[C@@H](C(=O)N[C@@H]1C(=O)N2C(C(=O)O)=C(Cl)CS[C@H]12)c1ccccc1 [cefaclor],Susceptibility,S. pneumoniae [15],82.5%
same,susceptible,H. influenzae [16],92.1%
CC=CC1=C(C(=O)O)N2C(=O)[C@@H](NC(=O)[C@H](N)c3ccc(O)cc3)[C@H]2SC1 [cefprozil],Susceptibility,S. pneumoniae [15],87.3%
same,susceptible,H. influenzae [16],93.3%
"CN(C)c1cc(NC(=O)CNC(C)(C)C)c(O)c2c1C[C@H]1C[C@H]3[C@H](N(C)C)C(O)=C(C(N)=O)C(=O)[C@@]3(O)C(O)=C1C2=O [TGC, tigecycline]",Δ Log10 CFU/ml,MDR-MRSA,−2.59 Log10 CFU/ml
same,Δ Log10 CFU/ml,CA-MRSA,−2.37 Log10 CFU/ml
same,"clinical cure rate at TOC, ME group","[17]; TGC 100 mg then 50 mg q12h iv, IMI/CIS 500/500 mg q6h, 5–14 days",80.6%
same,nausea,[17]; adverse events,31.0%
same,vomiting,[17]; adverse events,25.7%
same,"clinical cure rate at TOC, m-mITT cohort",[17]; same regimens,73.5%
"Cc1cc(NS(=O)(=O)c2ccc(N)cc2)no1 [Sulfa, sulfamethoxazol]",MIC of sensitive isolates carrying sulI and sulII,E. coli (Ec); 3 isolates,8 µg/mL
same,MIC of sensitive strains without the three genes,E. coli (Ec); 6 strains,12 to 32 µg/mL
same,resistant isolates,E. coli (Ec); 20 out of 29,65.5%
CCOc1ccc2ccccc2c1C(=O)N[C@@H]1C(=O)N2[C@@H]1SC(C)(C)[C@@H]2C(=O)O [nafcillin],significant biofilm killing,[18],not achieved
